Source: PubChem BioAssay AID602210 (Sanford-Burnham Center for Chemical Genomics, 2012)
The source made the active and inactive calls. No rule for the calls is given here.

assay: modulators of 2-deoxyglucose-induced H9c2 death, dose response, myocardial damage modulator project, cell-based, ATPlite luminescence, rat, set 2 (AID 602210); conditions: H9c2 rat cardiomyoblasts, 2-deoxyglucose-induced death, 2 h

SMILES | IC50
Cc1cccc(NC(=O)c2nc[nH]c2C(=O)NCCCCNC(=O)c2[nH]cnc2C(=O)Nc2cccc(C)c2)c1 | 3.32 µM
CC(=O)Nc1cc(-c2ccc(C(=O)NC3CC3)cc2)cn2c(-c3cccc(C(C)=O)c3)cnc12 | 23.3 µM (inactive)
O=C(/C=C\c1cn(-c2ccccc2)nc1-c1ccc2c(c1)OCCO2)N1CCOCC1 | > 79 µM (inactive)
O=C(COC(=O)c1ccccc1C(=O)OCC(=O)NCCc1c[nH]c2ccccc12)NCCc1c[nH]c2ccccc12 | 9.24 µM
COc1cc(NC(=O)c2ccco2)c(OC)cc1NC(=O)c1cc(OC)c(OC)c(OC)c1 | 7.97 µM
CCN(CC)S(=O)(=O)c1ccc(Nc2nc3ccccc3n3nnnc23)cc1 | 7.9 µM
Cc1ccc(C=NNc2nc3c([nH]2)c(=O)n(C)c(=O)n3C)cc1 | 11 µM (inactive)
CC1(C)CC(=O)C2=C(C1)N(CCN1CCOCC1)C1=C(C(=O)CC(C)(C)C1)C2c1ccc(Cl)cc1 | 39.1 µM (inactive)
Cc1nn(-c2ccccc2)c(C)c1/C=N/NC(=O)c1cc(C(C)(C)C)[nH]n1 | 44.7 µM (inactive)
Nc1cc2[nH]c(=O)c3ccccc3c2cc1[N+](=O)[O-] | 24.4 µM (inactive)
C[C@H](CO)N1C[C@H](C)[C@@H](CN(C)S(=O)(=O)c2ccccc2)Oc2ccc(NC(=O)Nc3ccccc3)cc2C1=O | 36.2 µM (inactive)
CCCCCCn1c(C)nc2c(c1=O)c1nc3ccccc3nc1n2/N=C/c1ccco1 | 11.2 µM (inactive)
CC(=O)N1CCN(c2ccccc2NC(=O)c2ccc(-c3cccc([N+](=O)[O-])c3)o2)CC1 | 6.88 µM
COc1ccccc1-c1cc(NC(C)=O)c2ncc(-c3cccc(C(C)=O)c3)n2c1 | > 79 µM (inactive)
CC1(C)Oc2ccc3ccc(=O)oc3c2/C(=C/Nc2ccccn2)C1=O | 12.4 µM (inactive)
CCOc1ccc2nc(NC(=O)CN3CCC(n4nnc5cc(F)ccc54)CC3)sc2c1 | 15.9 µM (inactive)
c1ccc(N2CCOCC2)c(Nc2nc3ccccc3n3cnnc23)c1 | 33.1 µM (inactive)
Cc1cc(N)n(-c2nc(-c3cccnc3)nc3ccccc23)n1 | 26.1 µM (inactive)
O=C(Nc1ccccc1)c1nc[nH]c1C(=O)NCCCCNC(=O)c1[nH]cnc1C(=O)Nc1ccccc1 | 4.11 µM
O=C(NCCc1c[nH]c2ccccc12)C(=O)NCC(c1ccco1)N1CCN(c2ccccc2F)CC1 (stereo not drawn) | > 79 µM (inactive)
Cc1ccc(NC(=O)c2cc(-c3cccs3)nc3ccccc23)nc1 | > 79 µM (inactive)
COc1ccc(-c2nn3c(-c4ccco4)nnc3s2)cc1OC | 28.2 µM (inactive)

SMILES | IC50
COc1cc(OC)c(-c2nn3c(-c4ccco4)nnc3s2)cc1OC | 9.15 µM
CS(=O)(=O)c1ccc(-c2cnc3c(NC=O)cc(-c4ccsc4)cn23)cc1 | 23 µM (inactive)
O=C(Nc1cccnc1)c1sc(Nc2ccccc2)nc1-c1ccccc1 | > 79 µM (inactive)
CC(=O)Nc1cc(-c2ccc(C(=O)N3CCOCC3)cc2)cn2c(-c3ccc(C(C)=O)cc3)cnc12 | 27.1 µM (inactive)
O=C(N/N=C/c1ccc2c(c1)OCO2)c1ccc(NC(=O)c2ccccc2Cl)cc1 | 14.8 µM (inactive)
O=C(c1ccccc1)c1ccc2nc(N3CCN(C(=O)c4ccco4)CC3)c3nncn3c2c1 | 21.9 µM (inactive)
CCOC(=O)N1CCC(n2c(SCC(=O)N3CCC(C)CC3)nc3ccccc3c2=O)CC1 | 31.6 µM (inactive)
COc1ccccc1NC(=O)COc1ccc(C(=O)OCC(=O)NC(C)(C)C)cc1OC | 23.9 µM (inactive)
COc1ccc(OC)c(NC(=O)c2sc3ncnc(N4CCN(c5ccccn5)CC4)c3c2C)c1 | 12.1 µM (inactive)
O=C(c1ccc(-c2nc3ccccc3s2)o1)N1CCN(c2ccccc2O)CC1 | 13.2 µM (inactive)
C=CCn1cnc2c(c1=O)c1nc3ccccc3nc1n2/N=C/c1cc(OC)c(OC)c(OC)c1 | 2.64 µM
CC(C(=O)NC1CCCC1)N(C(=O)Cn1nnc(-c2ccc(F)cc2)n1)c1ccccc1F (stereo not drawn) | 11.3 µM (inactive)
COc1ccc(-c2cc(-c3nnc(COC(=O)C4CC4C)o3)c3ccccc3n2)cc1OC (stereo not drawn) | 10.3 µM (inactive)
CCN1C(=O)/C(=C/c2nc3ccccc3c(=O)[nH]2)c2ccccc21 | 27.9 µM (inactive)
COc1ccccc1CN(C(=O)CNC(=O)c1ccco1)C(C(=O)NCC1CCCO1)c1ccccc1 (stereo not drawn) | 9.47 µM
COc1ccc(Cl)cc1-c1nc(-c2ccc(NC(=O)c3cccs3)cc2)no1 | > 79 µM (inactive)
Cc1ncc(CO)c2cc(C(=O)Nc3ccccc3Cl)c(=Nc3cccc(C(N)=O)c3)oc12 | 2.43 µM
CCOC(=O)C1=C(C)N=c2s/c(=C\c3ccncc3)c(=O)n2C1c1ccc2c(c1)OCO2 (stereo not drawn) | 30.3 µM (inactive)
C=CCOC(=O)C1=C[C@H](c2cn(C(C)=O)c3ccccc23)C[C@H](OCc2ccc(CO)cc2)O1 | 21.5 µM (inactive)
S=C(Nc1ccc(N2CCOCC2)cc1)Nc1ccc2nc(-c3ccco3)c(-c3ccco3)nc2c1 | 11.3 µM (inactive)
O=c1c2ccccc2nc2c3ccccc3c(NCCO)nn12 | 70.6 µM (inactive)
C[C@H](NC(=O)c1nc[nH]c1C(=O)NCC(=O)OCc1ccccc1)c1ccccc1 | 14.3 µM (inactive)

SMILES | IC50
COCCNC(=O)COC(=O)c1ccc(OCC(=O)Nc2ccccc2OC)c(OC)c1 | 22 µM (inactive)
O=[N+]([O-])c1ccc(Nc2nc(N/N=C/c3cccc(F)c3)nc(N3CCCC3)n2)cc1 | 10.2 µM (inactive)
COc1ccc(-c2cc(C(=O)N(C)Cc3ccc(OC)c(OC)c3OC)c3ccccc3n2)cc1OC | 10.2 µM (inactive)
COc1cc(NC(=O)c2cc3c(C)nc4ccccc4c3o2)cc(OC)c1OC | 11.2 µM (inactive)
COc1ccc(-c2nn(-c3ccccc3)cc2C(=O)Nc2nccs2)cc1 | 16.4 µM (inactive)
COc1cc(/C=N/NC(=O)c2ccccc2)ccc1OS(=O)(=O)c1ccccc1 | 13.5 µM (inactive)
Cc1c(O)ccc2c(-c3ccccc3)cc(=O)oc12 | 31.7 µM (inactive)
COc1cc(NC(=O)c2cc3ccccc3cc2OC)ccc1NC(=O)c1cccs1 | 3.78 µM
CCOC(=O)C1=C(COC(=O)/C=C/c2ccc(F)cc2)NC(=O)NC1C (stereo not drawn) | 18.1 µM (inactive)
COc1cc(CN2C[C@@H](CO)O[C@@H](n3cnc4c(Nc5ccccc5)ncnc43)C2)cc(OC)c1OC | 17.5 µM (inactive)
COc1cc(-c2cc(NC=O)c3ncc(-c4ccc(C(C)=O)cc4)n3c2)ccc1O | > 79 µM (inactive)
COc1ccc2o/c(=N/NC(=O)c3cccs3)c(C(N)=O)cc2c1 | 21.5 µM (inactive)
COc1ccc(OC)c(N(CC(=O)Nc2cccnc2)S(=O)(=O)c2ccc(OC)c(OC)c2)c1 | 32.2 µM (inactive)
COCCCN(Cc1ccco1)C(=O)Cn1ncc2c([nH]c3ccccc32)c1=O | 25.5 µM (inactive)
COc1ccc(CCCNC(=O)C2(C)Cc3c(-c4ccc(NC(C)=O)cc4)ccnc3O2)cc1 (stereo not drawn) | 12.5 µM (inactive)
C[C@@H]1CN([C@@H](C)CO)C(=O)c2cc(NC(=O)Nc3ccccc3)ccc2O[C@H]1CN(C)C(=O)Nc1cccc2ccccc12 | 15 µM (inactive)
CN(C)S(=O)(=O)n1cc(/C=C(\NC(=O)c2ccccc2F)C(=O)NCCN2CCOCC2)c2ccccc21 | > 79 µM (inactive)
NC(=O)c1nsc(C(=O)N(CCc2ccccc2)C(C(=O)NC2CCCC2)c2ccco2)c1N (stereo not drawn) | 25.8 µM (inactive)
COc1cc(/C=N/NC(=O)c2cccnc2)ccc1OS(=O)(=O)c1cc(C)ccc1C | 18.5 µM (inactive)
COc1cc(/C=N/NC(=O)c2cccnc2)ccc1OCC(=O)Nc1ccccc1Cl | 7.84 µM
CCCNC(=O)c1ccc(N2CCC3(CC2)CC(c2ccccc2)=NO3)c(NC(=O)c2ccco2)c1 | 8.75 µM
CC(C)(C)OC(=O)CNC(=O)c1[nH]cnc1C(=O)NCC(=O)OCc1ccccc1 | 4.16 µM

SMILES | IC50
CCn1nc(C(=O)Nc2nc(-c3ccccn3)cs2)c2ccccc2c1=O | 6.65 µM
COc1ccc(-n2c(/C=C/c3ccc(O)c(OC)c3)nc3ccccc3c2=O)cc1 | 8.14 µM
COc1ccc2[nH]c(=O)c(CN(Cc3cccnc3)S(=O)(=O)c3ccccc3F)cc2c1 | 2.74 µM
COc1ccc(-c2ccc3[nH]c4c(c3c2)CCN2C[C@H]3[C@H](C)ON(C)[C@H]3C[C@@H]42)cc1 | 29.8 µM (inactive)
O=C(CNC(=O)c1[nH]cnc1C(=O)NC(c1ccccc1)c1ccccc1)OCc1ccccc1 | 22.3 µM (inactive)
COC(=O)c1[nH]c2cc(OC)c(OC)cc2c1/C=N/Nc1ccccc1 | > 79 µM (inactive)
O=C(NCC(=O)N(Cc1cccs1)C(C(=O)NC1CCCC1)c1ccco1)c1cccs1 (stereo not drawn) | 24.5 µM (inactive)
CC1Nc2ncnc(N3CCN(c4ccccc4)CC3)c2N(Cc2ccc(Br)cc2)C1=O (stereo not drawn) | > 79 µM (inactive)
COc1ccc(-c2cc(-c3nnc(COC(=O)c4ccncc4)o3)c3ccccc3n2)cc1OC | 18.1 µM (inactive)
COc1ccc(-c2cc(C(=O)Nc3ccccc3N3CCOCC3)c3ccccc3n2)cc1OC | 7.58 µM
Fc1ccc(-n2cc(-c3ccccc3)c3c(N4CCOCC4)ncnc32)cc1 | 6.7 µM
COc1cccc(-c2cnc3c(NC=O)cc(-c4cc(C)c(O)c(C)c4)cn23)c1 | 18.9 µM (inactive)
CCN(C[C@H]1N[C@@](C)(C(=O)OC)[C@H]2C(=O)N(Cc3ccccc3)C(=O)[C@@H]12)C(=O)c1ccc(C(C)(C)C)cc1 | 17.9 µM (inactive)
Cn1c(=O)[nH]c(=O)c2c1nc(Br)n2CC(O)COc1ccc(Cl)cc1 (stereo not drawn) | 22.8 µM (inactive)
CCOC(=O)C1CCN(c2cc3c(cc2NC(=O)c2ccccc2)n(C)c(=O)n3C)CC1 | 10 µM
Cc1cccc(NC(=O)c2nc[nH]c2C(=O)NCCCNC(=O)c2[nH]cnc2C(=O)Nc2cccc(C)c2)c1 | > 79 µM (inactive)
COc1ccc(CN(C)C(=O)C(Cc2ccccc2)NC(=O)c2ccccc2)cc1F (stereo not drawn) | 10.5 µM (inactive)
COc1cc(C(=O)Nc2cc3c(cc2N2CCCCC2)n(C)c(=O)n3C)cc(OC)c1OC | 23.7 µM (inactive)
COc1ccc(-c2csc(NC(=O)c3ccc(OCC(=O)N4CCOCC4)c(OC)c3)n2)cc1OC | 10.9 µM (inactive)
COc1ccc(C(=O)O/N=C(/c2ccccc2)c2ccncc2)cc1OC | 15.9 µM (inactive)
O=C(CN1CCN(Cc2ccccc2)CC1)Nc1ccc([N+](=O)[O-])cc1C(=O)Nc1ccccc1F | 24.6 µM (inactive)
O=c1c2ccccc2nc(CSc2ncnc3nc[nH]c23)n1-c1ccc(Cl)c(Cl)c1 | 14.7 µM (inactive)
